What follows are molecules tested against T1, AGO2-MID (Homo sapiens, UniProt Q9UKV8) (assay: isothermal titration calorimetry). Details: read-out: Ka (× 10^3 M^-1) (converted).
T1 construct: MID domain, residues 432-578; expressed in E. coli BL21(DE3)pLysS as His6-SUMO-TEV fusion (pCold I), His6-SUMO cleaved with proTEV
Type: binding
From the text: isothermal titration calorimetry on AGO2-MID

T1 sequence (Q9UKV8 432-578): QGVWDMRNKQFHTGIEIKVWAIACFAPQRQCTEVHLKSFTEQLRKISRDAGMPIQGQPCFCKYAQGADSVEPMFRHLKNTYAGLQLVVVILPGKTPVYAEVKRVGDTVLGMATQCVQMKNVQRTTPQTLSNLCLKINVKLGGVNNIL

Kd	SMILES
169 µM	Nc1ncnc2c1ncn2[C@@H]1O[C@H](COP(=O)(O)O)[C@@H](O)[C@H]1O [AMP]
4.35 µM	Nc1ncnc2c1ncn2[C@@H]1O[C@H](COP(=O)(O)O[C@H]2[C@@H](O)[C@H](n3cnc4c(N)ncnc43)O[C@@H]2COP(=O)(O)O)[C@@H](O)[C@H]1O [p-rArA]
139 µM	Nc1ncnc2c1ncn2CC(=O)N[C@@H](COP(=O)(O)O)COP(=O)(O)OC[C@H]1O[C@@H](n2cnc3c(N)ncnc32)[C@H](O)[C@@H]1O [p-sArA]
169 µM	Nc1ncnc2c1ncn2CC(=O)N[C@H](CO)COP(=O)(O)OC[C@H](COP(=O)(O)O)NC(=O)Cn1cnc2c(N)ncnc21 [p-sAsA]

Reference: paper PMC7432901, “Investigation of Strand-Selective Interaction of SNA-Modified siRNA with AGO2-MID” (International Journal of Molecular Sciences, 2020)
